Assay results from BindingDB's records for patent US10766884 (Pfizer Inc., 2020).

Molecular target: Cyclin-dependent kinase 6/G1/S-specific cyclin-D3 (Homo sapiens, UniProt Q00534)
Assay: Biological Assay
Experimental: CDK6/Cyclin D3: The purpose of the CDK6/Cyclin D3 assay is to evaluate the inhibition (% inhibition, Kiapp and Ki values) in the presence of small molecule inhibitors by using a fluorescence based microfluidic mobility shift assay. […] The mobility shift assay electrophoretically separates the fluorescently labeled peptides (substrate and phosphorylated product) following the kinase reaction. Both substrate and product are measured and the ratio of these values is used to generate % conversion of substrate to product by the LabChip EZ Reader.

Sequence of Cyclin-dependent kinase 6/G1/S-specific cyclin-D3 (Q00534 whole entry): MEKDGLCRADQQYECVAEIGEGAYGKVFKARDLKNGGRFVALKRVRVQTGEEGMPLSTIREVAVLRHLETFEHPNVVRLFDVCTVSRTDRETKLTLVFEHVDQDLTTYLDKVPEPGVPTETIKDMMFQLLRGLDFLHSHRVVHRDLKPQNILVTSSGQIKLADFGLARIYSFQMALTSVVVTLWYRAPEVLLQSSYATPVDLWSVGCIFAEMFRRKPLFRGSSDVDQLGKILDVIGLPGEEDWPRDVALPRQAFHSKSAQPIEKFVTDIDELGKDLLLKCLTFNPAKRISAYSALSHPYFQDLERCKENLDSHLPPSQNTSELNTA
Sequence of Cyclin-dependent kinase 6/G1/S-specific cyclin-D3 (P30281 whole entry, further chain): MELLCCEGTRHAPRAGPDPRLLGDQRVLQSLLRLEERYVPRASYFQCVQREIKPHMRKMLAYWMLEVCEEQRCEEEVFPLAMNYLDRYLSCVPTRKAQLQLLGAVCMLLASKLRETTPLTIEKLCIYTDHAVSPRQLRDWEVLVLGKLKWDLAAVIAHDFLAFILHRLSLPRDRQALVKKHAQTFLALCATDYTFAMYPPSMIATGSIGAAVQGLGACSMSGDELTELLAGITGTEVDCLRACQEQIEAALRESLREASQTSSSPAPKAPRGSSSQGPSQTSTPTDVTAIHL

SMILES: Cc1nc2c(F)cc(-c3cc(N[C@@H]4CCN(S(C)(=O)=O)C[C@H]4O)ncc3Cl)cc2n1C(C)C [US10766884, Example E01]
- Ki: 1.4 nM
